Results: patent US20120030841A1, “Isoxazoline compounds for combating invertebrate pests” (BASF SE, priority 2009, published 2012)

Experiments:
Assay type in all cases: in vivo
[1] = test system: green peach aphid (Myzus persicae); assay: Green peach aphid systemic test, artificial diet under membrane, 96-well plates; settings: 72 h, adult aphids on treated artificial diet, 3 days, read-out: mortality in comparison with untreated controls
Protocol: (§1) The test solution was prepared the day it was used and in general at concentrations of […] (wt/vol).
For evaluating control of green peach aphid (Myzus persicae) through systemic means the test unit consisted of 96-well-microtiter plates containing liquid artificial diet under an artificial membrane.
The compounds were formulated using a solution containing 75% v/v water and 25% v/v DMSO. Different concentrations of formulated compounds were pipetted into the aphid diet, using a custom built pipetter, at two replications.
After application, 5-8 adult aphids were placed on the artificial membrane inside the microtiter plate wells. The aphids were then allowed to suck on the treated aphid diet and incubated at about 23±1° C. and about 50±5% relative humidity for 3 days. Aphid mortality and fecundity was then visually assessed.

[2] = test system: tobacco budworm (Heliothis virescens); assay: Tobacco budworm egg/larval test on insect diet, 96-well plates; settings: 120 h, sprayed onto insect diet, egg and larval mortality, 5 days, read-out: mortality in comparison with untreated controls
Protocol: as §1
(§2) For evaluating control of tobacco budworm (Heliothis virescens) the test unit consisted of 96-well-microtiter plates containing an insect diet and 15-25 H. virescens eggs. The compounds were formulated using a solution containing 75% v/v water and 25% v/v DMSO. Different concentrations of formulated compounds were sprayed onto the insect diet at 10 μl, using a custom built micro atomizer, at two replications. After application, microtiter plates were incubated at about 28±1° C. and about 80±5% relative humidity for 5 days. Egg and larval mortality was then visually assessed.

[3] = test system: boll weevil (Anthonomus grandis); assay: Boll weevil egg/larval test on insect diet, 24-well plates; settings: 120 h, sprayed onto insect diet, egg and larval mortality, 5 days, read-out: mortality in comparison with untreated controls
Protocol: as §1
For evaluating control of boll weevil (Anthonomus grandis) the test unit consisted of 24-well-microtiter plates containing an insect diet and 20-30 A. grandis eggs.
The compounds were formulated using a solution containing 75% v/v water and 25% v/v DMSO. Different concentrations of formulated compounds were sprayed onto the insect diet at 20 μl, using a custom built micro atomizer, at two replications.
After application, microtiter plates were incubated at about 23±1° C. and about 50±5% relative humidity for 5 days. Egg and larval mortality was then visually assessed.

[4] = test system: Mediterranean fruitfly (Ceratitis capitata); assay: Mediterranean fruitfly egg/larval test on insect diet, microtiter plates; settings: 120 h, sprayed onto insect diet, egg and larval mortality, 5 days, read-out: mortality in comparison with untreated controls
Protocol: as §1
For evaluating control of Mediterranean fruitfly (Ceratitis capitata) the test unit consisted of microtiter plates containing an insect diet and 50-80 C. capitata eggs.
as §2, with “The” for “For evaluating control of tobacco budworm (Heliothis virescens) the test unit consisted of 96-well-microtiter plates containing an insect diet and 15-25 H. virescens eggs. The”, “5” for “10”

[5] = test system: southern armyworm (Spodoptera eridania); assay: Southern armyworm foliar spray test on lima bean plants; settings: 96 h, armyworm larvae, 4 days after treatment, read-out: mortality in comparison with untreated controls
Protocol: as §1
The active compounds were formulated in cyclohexanone as a 10,000 ppm solution supplied in tubes. The tubes were inserted into an automated electrostatic sprayer equipped with an atomizing nozzle and they served as stock solutions for which lower dilutions were made in 50% acetone:50% water (v/v). A nonionic surfactant (Kinetic®) was included in the solution at a volume of 0.01% (v/v).
Lima bean plants (variety Sieva) were grown 2 plants to a pot and selected for treatment at the 1St true leaf stage. Test solutions were sprayed onto the foliage by an automated electrostatic plant sprayer equipped with an atomizing spray nozzle. The plants were dried in the sprayer fume hood and then removed from the sprayer. Each pot was placed into perforated plastic bags with a zip closure. About 10 to 11 armyworm larvae were placed into the bag and the bags zipped closed. Test plants were maintained in a growth room at about 25° C. and about 20-40% relative humidity for 4 days, avoiding direct exposure to fluorescent light (24 hour photoperiod) to prevent trapping of heat inside the bags. Mortality and reduced feeding were assessed 4 days after treatment, compared to untreated control plants.

FC(F)(F)C1(c2cc(Cl)cc(Cl)c2)CC(c2ccnc3c(Br)cccc23)=NO1 (centres unmarked) [Compound 1-1, 8-bromo-4-[5-(3,5-dichloro-phenyl)-5-trifluoromethyl-4,5-di-hydroisoxazol-3-yl]-quinoline]
> 75%: mortality at 2500 ppm [1] | mortality at 2500 ppm [2] | mortality at 2500 ppm [3] | mortality at 2500 ppm [4] | mortality at 300 ppm [5]

N#Cc1cccc2c(C3=NOC(c4cc(Cl)cc(Cl)c4)(C(F)(F)F)C3)ccnc12 (centres unmarked) [Compound 1-2, 4-[5-(3,5-dichloro-phenyl)-5-trifluoromethyl-4,5-di-hydroisoxazol-3-yl]-quinoline-8-carbonitrile]
> 75%: mortality at 2500 ppm [2] | mortality at 2500 ppm [3] | mortality at 2500 ppm [4] | mortality at 300 ppm [5]

COC(=O)c1cccc2c(C3=NOC(c4cc(Cl)cc(Cl)c4)(C(F)(F)F)C3)ccnc12 (centres unmarked) [Compound 1-3, 4-[5-(3,5-dichloro-phenyl)-5-trifluoromethyl-4,5-di-hydroisoxazol-3-yl]-quinoline-8-carboxylic acid methyl ester]
> 75%: mortality at 2500 ppm [3] | mortality at 2500 ppm [4]
